Reference: US9434684B2, “Oxime-substituted amide compound and pest control agent” (Nissan Chemical Industries, Ltd., priority 2012, dated 2016)

Legend:
Sclerotinia sclerotiorum = assay: Preventive effect against cucumber stem rot; assay type: in vivo; settings: 48 h, 100 ppm solution (*), 2 days
Botrytis cinerea [1] = assay: Preventive effect against cucumber gray mold (mycelium inoculation); assay type: in vivo; settings: 48 h, 100 ppm solution (*), 2 days
[2] = system: Phaeosphaeria nodorum (synonym: Septoria nodorum); assay: Preventive effect against wheat glume blotch; assay type: in vivo; settings: Parastagonospora nodorum, 192 h, 100 ppm solution (*), 2 + 6 days
Botrytis cinerea [3] = assay: Preventive effect against cucumber gray mold (spore inoculation); assay type: in vivo; settings: 72 h, cucumber leaves, 100 ppm solution (*), 3 days

Q: Which results are given for `CC(C)O/N=C(/CNC(=O)c1ccccc1C(F)(F)F)c1ncc(C(F)(F)F)cc1Cl` [Compound No. 2-020, (Z)—N-[2-[3-chloro-5-(trifluoromethyl)pyridin-2-yl]-2-(isopropoxyimino)ethyl]-2-(trifluoromethyl)benzamide]?
A: pest or weed control at 100 ppm (Sclerotinia sclerotiorum): ≥ 70%; pest or weed control at 100 ppm (Botrytis cinerea [1]): ≥ 70%; pest or weed control at 100 ppm [2]: ≥ 70%; pest or weed control at 100 ppm (Botrytis cinerea [3]): ≥ 70%; melting point: 97 to 98 °C
